Experimental data reported in US9694021B2, “Pharmaceutical compositions with phosphonium antimicrobial agents” (Alcon Research, Ltd., priority 2010, dated 2017).

Assays:
Format in all cases: cell-based
[1] = tested on: Staph Aureus; assay: Preservative efficacy test (PET), Staph Aureus; settings: boric acid/mannitol/NaCl, pH 6.0
Text: (§1) The present invention is particularly useful for the provision of multi-dose pharmaceutical (e.g., ophthalmic) compositions that have sufficient antimicrobial activity to allow the compositions to satisfy the USP preservative efficacy requirements, as well as other preservative efficacy standards for aqueous pharmaceutical compositions.
(§2) The preservative efficacy standards for multi-dose ophthalmic solutions in the U.S. and other countries/regions are set forth in the following table:
(§3) Concentrations for the various ingredients of the compositions of the examples provided below are w/v % unless otherwise specifically stated. The compositions of Examples A-D and their preservation efficacy testing (PET) results are provided below.

[2] = tested on: Pseudomonas A.; assay: Preservative efficacy test (PET), Pseudomonas A.; settings: boric acid/mannitol/NaCl, pH 6.0
Text: as §1, §2, §3

[3] = tested on: E. Coli; assay: Preservative efficacy test (PET), E. Coli; settings: boric acid/mannitol/NaCl, pH 6.0
Text: as §1, §2, §3

[4] = tested on: Candida A.; assay: Preservative efficacy test (PET), Candida A.; settings: boric acid/mannitol/NaCl, pH 6.0
Text: as §1, §2, §3

[5] = tested on: Aspergillus N.; assay: Preservative efficacy test (PET), Aspergillus N.; settings: boric acid/mannitol/NaCl, pH 6.0
Text: as §1, §2, §3

[6] = tested on: Bacteria, Fungi; assay: PET overall result (Pass/Fail against USP / Ph. Eur. criteria); settings: for PET Results (Pass/Fail): boric acid/mannitol/NaCl, pH 6.0
Text: as §1, §2, §3

[7] = tested on: canine epithelial cells; assay: Cytotoxicity, neutral red retention
Text: FIGS. 1 and 2 illustrate the relative cytotoxicity of compounds, some of which are in accordance with the present invention.
FIGS. 1 and 2 illustrate the cytotoxicity of the compounds shown in the above examples. In particular, these Figures show the neutral red retention of canine epithelial cells for the various compounds with the greater neutral red retention showing the lower the cytotoxicity. […] As such, many of these phosphonium antimicrobial agents can be used as suitable replacements for benzalkonium chloride particularly in circumstances where benzalkonium chloride is unsuitable (e.g., is incompatible with other ingredients in a solution).

For OC[P+](CO)(CO)CO.[Cl-] [Tetrakis-Hydroxymethyl-Phosphonium Chloride], the “Staph Aureus (6 Hr), PET log order reduction” value ([1]; 0.0025 % w/v) was 5.0/5.0/, the “Staph Aureus (6 Hr), PET log order reduction” value ([1]; 0.005 % w/v) was 5.0/5.0/ and the “Staph Aureus (6 Hr), PET log order reduction” value ([1]; 0.01 % w/v) was 5.0/5.0/. The “Staph Aureus (7 Day), PET log order reduction” value ([1]; 0.0025 % w/v) was 5.0/5.0/5.0, the “Staph Aureus (7 Day), PET log order reduction” value ([1]; 0.005 % w/v) was 5.0/5.0/5.0 and the “Staph Aureus (7 Day), PET log order reduction” value ([1]; 0.01 % w/v) was 5.0/5.0/5.0. For the same compound, the “Staph Aureus (14 Day), PET log order reduction” value ([1]; 0.0025 % w/v) was 5.0/5.0/5.0, the “Staph Aureus (14 Day), PET log order reduction” value ([1]; 0.005 % w/v) was 5.0/5.0/5.0 and the “Staph Aureus (14 Day), PET log order reduction” value ([1]; 0.01 % w/v) was 5.0/5.0/5.0. For the same compound, the “Staph Aureus (24 Hr), PET log order reduction” value ([1]; 0.0025 % w/v) was 5.0/5.0/, the “Staph Aureus (24 Hr), PET log order reduction” value ([1]; 0.005 % w/v) was 5.0/5.0/ and the “Staph Aureus (24 Hr), PET log order reduction” value ([1]; 0.01 % w/v) was 5.0/5.0/. For the same compound, the “Staph Aureus (28 Day), PET log order reduction” value ([1]; 0.0025 % w/v) was 5.0/5.0/5.0, the “Staph Aureus (28 Day), PET log order reduction” value ([1]; 0.005 % w/v) was 5.0/5.0/5.0 and the “Staph Aureus (28 Day), PET log order reduction” value ([1]; 0.01 % w/v) was 5.0/5.0/5.0. The “Pseudomonas A. (6 Hr), PET log order reduction” value ([2]; 0.0025 % w/v) was 3.3, the “Pseudomonas A. (6 Hr), PET log order reduction” value ([2]; 0.005 % w/v) was 5.0/5.0/ and the “Pseudomonas A. (6 Hr), PET log order reduction” value ([2]; 0.01 % w/v) was 5.0/5.0/. For the same compound, the “Pseudomonas A. (7 Day), PET log order reduction” value ([2]; 0.0025 % w/v) was 5.0/5.0/5.0, the “Pseudomonas A. (7 Day), PET log order reduction” value ([2]; 0.005 % w/v) was 5.0/5.0/5.0 and the “Pseudomonas A. (7 Day), PET log order reduction” value ([2]; 0.01 % w/v) was 5.0/5.0/5.0. For the same compound, the “Pseudomonas A. (14 Day), PET log order reduction” value ([2]; 0.0025 % w/v) was 5.0/5.0/5.0, the “Pseudomonas A. (14 Day), PET log order reduction” value ([2]; 0.005 % w/v) was 5.0/5.0/5.0 and the “Pseudomonas A. (14 Day), PET log order reduction” value ([2]; 0.01 % w/v) was 5.0/5.0/5.0. The “Pseudomonas A. (24 Hr), PET log order reduction” value ([2]; 0.0025 % w/v) was 5.0, the “Pseudomonas A. (24 Hr), PET log order reduction” value ([2]; 0.005 % w/v) was 5.0/5.0/ and the “Pseudomonas A. (24 Hr), PET log order reduction” value ([2]; 0.01 % w/v) was 5.0/5.0/. For the same compound, the “Pseudomonas A. (28 Day), PET log order reduction” value ([2]; 0.0025 % w/v) was 5.0/5.0/5.0, the “Pseudomonas A. (28 Day), PET log order reduction” value ([2]; 0.005 % w/v) was 5.0/5.0/5.0 and the “Pseudomonas A. (28 Day), PET log order reduction” value ([2]; 0.01 % w/v) was 5.0/5.0/5.0. For the same compound, the “E. Coli (6 Hr), PET log order reduction” value ([3]; 0.0025 % w/v) was 5.1/5.1/, the “E. Coli (6 Hr), PET log order reduction” value ([3]; 0.005 % w/v) was 5.1/5.1/ and the “E. Coli (6 Hr), PET log order reduction” value ([3]; 0.01 % w/v) was 5.1/5.1/. For the same compound, the “E. Coli (7 Day), PET log order reduction” value ([3]; 0.0025 % w/v) was 5.1/5.1/5.1, the “E. Coli (7 Day), PET log order reduction” value ([3]; 0.005 % w/v) was 5.1/5.1/5.1 and the “E. Coli (7 Day), PET log order reduction” value ([3]; 0.01 % w/v) was 5.1/5.1/5.1. For the same compound, the “E. Coli (14 Day), PET log order reduction” value ([3]; 0.0025 % w/v) was 5.1/5.1/5.1, the “E. Coli (14 Day), PET log order reduction” value ([3]; 0.005 % w/v) was 5.1/5.1/5.1 and the “E. Coli (14 Day), PET log order reduction” value ([3]; 0.01 % w/v) was 5.1/5.1/5.1. The “E. Coli (24 Hr), PET log order reduction” value ([3]; 0.0025 % w/v) was 5.1/5.1/, the “E. Coli (24 Hr), PET log order reduction” value ([3]; 0.005 % w/v) was 5.1/5.1/ and the “E. Coli (24 Hr), PET log order reduction” value ([3]; 0.01 % w/v) was 5.1/5.1/. For the same compound, the “E. Coli (28 Day), PET log order reduction” value ([3]; 0.0025 % w/v) was 5.1/5.1/5.1, the “E. Coli (28 Day), PET log order reduction” value ([3]; 0.005 % w/v) was 5.1/5.1/5.1 and the “E. Coli (28 Day), PET log order reduction” value ([3]; 0.01 % w/v) was 5.1/5.1/5.1. For the same compound, the “Candida A. (7 Day), PET log order reduction” value ([4]; 0.0025 % w/v) was 0.0, the “Candida A. (7 Day), PET log order reduction” value ([4]; 0.005 % w/v) was 0.1 and the “Candida A. (7 Day), PET log order reduction” value ([4]; 0.01 % w/v) was 0.9. The “Candida A. (14 Day), PET log order reduction” value ([4]; 0.0025 % w/v) was 0.2, the “Candida A. (14 Day), PET log order reduction” value ([4]; 0.005 % w/v) was 0.7 and the “Candida A. (14 Day), PET log order reduction” value ([4]; 0.01 % w/v) was 2.2. For the same compound, the “Candida A. (28 Day), PET log order reduction” value ([4]; 0.0025 % w/v) was 1.2, the “Candida A. (28 Day), PET log order reduction” value ([4]; 0.005 % w/v) was 2.0 and the “Candida A. (28 Day), PET log order reduction” value ([4]; 0.01 % w/v) was 3.9. For the same compound, the “Aspergillus N. (7 D), PET log order reduction” value ([5]; 0.0025 % w/v) was 3.1, the “Aspergillus N. (7 D), PET log order reduction” value ([5]; 0.005 % w/v) was 3.3 and the “Aspergillus N. (7 D), PET log order reduction” value ([5]; 0.01 % w/v) was 3.2. The “Aspergillus N. (14 D), PET log order reduction” value ([5]; 0.0025 % w/v) was 2.9, the “Aspergillus N. (14 D), PET log order reduction” value ([5]; 0.005 % w/v) was 3.2 and the “Aspergillus N. (14 D), PET log order reduction” value ([5]; 0.01 % w/v) was 5.3. The “Aspergillus N. (28 Day), PET log order reduction” value ([5]; 0.0025 % w/v) was 2.4, the “Aspergillus N. (28 Day), PET log order reduction” value ([5]; 0.005 % w/v) was 3.2 and the “Aspergillus N. (28 Day), PET log order reduction” value ([5]; 0.01 % w/v) was 5.3. For the same compound, the “PET Results (Pass/Fail)” value ([6]; 0.0025 % w/v) was “Pass USP”, the “PET Results (Pass/Fail)” value ([6]; 0.005 % w/v) was “Pass USP” and the “PET Results (Pass/Fail)” value ([6]; 0.01 % w/v) was “Pass EP-B”. The “preservation / antimicrobial efficacy, in words” value ([6]; summary statements of the text on the PET tables) was “highly desirable antimicrobial efficacy”, the “cytotoxicity (neutral red retention of canine epithelial cells)” value ([7]; FIG. 1, greater neutral red retention = lower cytotoxicity) was “extremely low level of cytotoxicity” and the “cytotoxicity (neutral red retention of canine epithelial cells)” value ([7]; FIG. 2, various concentrations and vehicles) was “extremely low toxicity regardless of concentration and/or the vehicle”.
